Measured values as given in patent US20110178070A1, “PI3K/mTOR INHIBITORS” (TAKEDA PHARMACEUTICAL COMPANY LIMITED, priority 2008, published 2011).
Where two headings read alike, the source gives them in different places.

Tests used:
[1] = biological target: mTOR (Homo sapiens, UniProt P42345); experiment: Z-Lyte biochemical assay, inhibition of mTOR (Example A);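 also: synthetic Ser/Thr peptide with coumarin–fluorescein FRET pair, phosphorylation protects from protease cleavage, coumarin/fluorescein emission ratio after 400 nm excitation, 1 h kinase reaction, 10-point 3-fold titrations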
Protocol: The inhibitory property of a compound relative to mTOR catalysis was determined by using the Z-Lyte™ biochemical assay conducted by Invitrogen Corporation (Madison, Wis.), which employs a fluorescence-based, coupled-enzyme format and is based on the differential sensitivity of phosphorylated and non-phosphorylated peptides to proteolytic cleavage. The peptide substrate is labeled with two fluorophores—one at each end—that make up a FRET pair.
In the primary reaction, the kinase transfers the gamma-phosphate of ATP to a single tyrosine, serine or threonine residue in a synthetic FRET-peptide. In the secondary reaction, a site-specific protease recognizes and cleaves non-phosphorylated FRET-peptides. Phosphorylation of FRET-peptides suppresses cleavage by the Development Reagent. Cleavage disrupts FRET between the donor (i.e., coumarin) and acceptor (i.e., fluorescein) fluorophores on the FRET-peptide, whereas uncleaved, phosphorylated FRET-peptides maintain FRET. A ratio metric method, which calculates the ratio (the Emission Ratio) of donor emission to acceptor emission after excitation of the donor fluorophore at 400 nm, is used to quantitate reaction progress, as shown in the equation below.
A significant benefit of this ratio metric method for quantitating reaction progress is the elimination of well-to-well variations in FRET-peptide concentration and signal intensities. […] Both cleaved and uncleaved FRET-peptides contribute to the fluorescence signals and therefore to the Emission Ratio. The extent of phosphorylation of the FRET-peptide can be calculated from the Emission Ratio.
Recombinant human mTOR enzyme (amino acids 1360-2549), GST-tagged, expressed in and purified from insect cells (Invitrogen Corp. Cat. #PV4753; also known as FRAP1) was used for the assay. The 2×FRAP1 (mTOR)/Ser/Thr 11 Peptide Mixture (Invitrogen Corp.) was prepared in buffer containing 50 mM HEPES pH 7.5, 0.01% BRIJ-35, 10 mM MnCl2, 1 mM EGTA, 2 mM DTT, and 0.02% NaN3. The final 10 μL Kinase Reaction consisted of 7.2-58.1 ng FRAP1 (mTOR) and 2 μM Ser/Thr 11 Peptide in buffer containing 50 mM HEPES pH 7.5, 0.01% BRIJ-35, 5 mM MgCl2, 5 mM MnCl2, 1 mM EGTA, 1 mM DTT, and 0.01% NaN3.
Test compounds are screened in 1% DMSO (final) in the well. For 10 point titrations, 3-fold serial dilutions are conducted from the starting concentration. The Ser/Thr 11 Peptide/Kinase Mixture was diluted to a 2× working concentration in buffer containing 50 mM HEPES pH 7.5, 0.01% BRIJ-35, 10 mM MnCl2, 1 mM EGTA, 2 mM DTT, and 0.02% NaN3. The ATP solution was diluted to a 4× working concentration in buffer containing 50 mM HEPES pH 7.5, 0.01% BRIJ-35, 10 mM MgCl2, and 1 mM EGTA.
After the 1 hour Kinase Reaction incubation, 5 μL of a 1:16 dilution of Development Reagent B was added, and the development reaction was allowed to proceed for an additional 1 hour at room temperature. The assay plate was then read on a fluorescence plate reader and the data analyzed as outlined above.
IC50 values were calculated by non-linear least squares curve fitting using XLfit from IDBS to fit the results to model number 205 (sigmoidal dose-response model).

[2] = biological target: T1, PI3Kalpha (PIK3CA/PIK3R1, p110 alpha/p85 alpha) (Homo sapiens, UniProt P42336); experiment: Adapta universal kinase assay, inhibition of PI3Kalpha (Example B); assay type: biochemical
T1 construct: recombinant human, full length, N-terminal His-tagged phosphoinositide-3-kinase catalytic subunit alpha polypeptide; His (N); purchased Invitrogen Corp. PV4788; host or cells: insect cells
From the text: In contrast to ATP depletion assays, the Adapta™ assay is extremely sensitive to ADP formation such that a majority of the signal change occurs in the first 10-20% conversion of ATP to ADP. This makes the Adapta™ universal kinase assay ideally suited for use with low activity kinases.
The principle of the Adapta™ universal kinase assay is outlined below. The assay itself can be divided into two phases: a kinase reaction phase, and an ADP detection phase. In the kinase reaction phase, all components required for the kinase reaction are added to the well, and the reaction is allowed to incubate for 60 minutes. After the reaction, a detection solution consisting of a europium labeled anti-ADP antibody, an Alexa Fluor® 647 labeled ADP tracer, and EDTA (to stop the kinase reaction) is added to the assay well. ADP formed by the kinase reaction (in the absence of an inhibitor) will displace the Alexa Fluor® 647 labeled ADP tracer from the antibody, resulting in a decrease in the TR-FRET signal.
ADP formation is determined by calculating the emission ratio from the assay well. The emission ratio is calculated by dividing the intensity of the tracer (acceptor) emission by the intensity of the Eu (donor) emission at 615 nm as shown in the equation below.
Since the Adapta™ technology measures ADP formation (i.e. conversion of ATP to ADP) it can be used to measure any type of ATP hydrolysis, including intrinsic ATPase activity of kinases. In this case, the substrate is water, not a lipid or peptide (Kashem, et al., 2007, J. Biomol. Screen. 12, 1, 70-83).
The combination of recombinant human, full length, N-terminal His-tagged phosphoinositide-3-kinase catalytic subunit alpha polypeptide ([…], PI3Kalpha), expressed in and purified from insect cells along with co-expressed recombinant, full length, untagged phosphoinositide-3-kinase regulatory subunit 1 (p85 alpha) (combination also known as PIK3CA/PIK3R1; Invitrogen Corp. Cat # PV4788) was used as the enzyme for this assay.
The test compounds are screened at 1% DMSO (final) in the well. […] The PIP2:PS Substrate/Kinase Mixture was diluted 2× to working concentration in Kinase Buffer containing 50 mM HEPES pH 7.5, 0.1% CHAPS, and 1 mM EGTA. […] The Detection Mix was prepared in TR-FRET Dilution Buffer.
After the 1 hour Kinase Reaction incubation at room temperature, 5 μL of Detection Mix was added, followed by another 30 sec plate shake to ensure mixing, and the Detection Mix was allowed to equilibrate for 1 hour at room temperature.
Lipid substrates are prepared by creating lipid vesicles. In some cases, these vesicles include a carrier lipid, such as phosphatidylserine (PS). In the assay conditions section above, “PIP2:PS” refers to large unilamellar vesicles (LUVs) containing five mole percent L-α-Phosphatidylinositol-4,5-bisphosphate (PIP2) and ninety-five percent phosphatidylserine (PS), and the concentration listed refers only to the PIP2 substrate, not the PS carrier lipid.

[3] = IC50 (nM) mTOR, Table 1, 10 μM ATP
[4] = Table 1, 25 μM ATP, read-out: IC50 (nM) PI3Kα

T1 sequence (P42336 whole entry): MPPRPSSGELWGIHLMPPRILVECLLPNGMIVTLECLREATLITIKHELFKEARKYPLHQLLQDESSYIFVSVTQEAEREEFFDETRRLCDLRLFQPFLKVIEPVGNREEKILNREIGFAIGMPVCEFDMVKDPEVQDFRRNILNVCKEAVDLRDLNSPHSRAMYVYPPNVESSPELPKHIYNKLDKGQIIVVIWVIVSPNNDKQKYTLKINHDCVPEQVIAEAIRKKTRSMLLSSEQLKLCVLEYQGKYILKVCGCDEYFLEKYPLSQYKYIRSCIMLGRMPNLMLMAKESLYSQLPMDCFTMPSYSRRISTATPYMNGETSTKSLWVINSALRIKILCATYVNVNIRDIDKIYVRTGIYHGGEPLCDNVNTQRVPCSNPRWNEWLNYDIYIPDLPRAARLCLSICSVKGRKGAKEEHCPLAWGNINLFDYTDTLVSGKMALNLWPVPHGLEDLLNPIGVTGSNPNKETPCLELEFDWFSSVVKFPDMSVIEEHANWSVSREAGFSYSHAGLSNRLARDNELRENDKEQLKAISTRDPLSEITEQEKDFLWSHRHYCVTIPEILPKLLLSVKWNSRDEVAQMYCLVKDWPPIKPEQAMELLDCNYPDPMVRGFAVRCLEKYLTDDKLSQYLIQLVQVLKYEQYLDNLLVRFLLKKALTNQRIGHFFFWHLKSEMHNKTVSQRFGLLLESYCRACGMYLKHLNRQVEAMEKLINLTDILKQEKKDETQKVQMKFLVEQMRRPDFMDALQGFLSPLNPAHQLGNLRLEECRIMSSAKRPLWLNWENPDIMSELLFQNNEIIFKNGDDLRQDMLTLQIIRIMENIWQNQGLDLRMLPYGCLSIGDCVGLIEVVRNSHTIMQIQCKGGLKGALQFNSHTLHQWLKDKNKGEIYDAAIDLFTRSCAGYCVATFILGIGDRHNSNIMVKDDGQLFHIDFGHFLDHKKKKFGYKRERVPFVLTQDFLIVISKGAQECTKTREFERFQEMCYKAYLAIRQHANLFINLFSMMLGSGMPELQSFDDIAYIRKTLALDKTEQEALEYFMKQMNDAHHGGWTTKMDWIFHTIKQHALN
T1 sequence (P27986 whole entry partner): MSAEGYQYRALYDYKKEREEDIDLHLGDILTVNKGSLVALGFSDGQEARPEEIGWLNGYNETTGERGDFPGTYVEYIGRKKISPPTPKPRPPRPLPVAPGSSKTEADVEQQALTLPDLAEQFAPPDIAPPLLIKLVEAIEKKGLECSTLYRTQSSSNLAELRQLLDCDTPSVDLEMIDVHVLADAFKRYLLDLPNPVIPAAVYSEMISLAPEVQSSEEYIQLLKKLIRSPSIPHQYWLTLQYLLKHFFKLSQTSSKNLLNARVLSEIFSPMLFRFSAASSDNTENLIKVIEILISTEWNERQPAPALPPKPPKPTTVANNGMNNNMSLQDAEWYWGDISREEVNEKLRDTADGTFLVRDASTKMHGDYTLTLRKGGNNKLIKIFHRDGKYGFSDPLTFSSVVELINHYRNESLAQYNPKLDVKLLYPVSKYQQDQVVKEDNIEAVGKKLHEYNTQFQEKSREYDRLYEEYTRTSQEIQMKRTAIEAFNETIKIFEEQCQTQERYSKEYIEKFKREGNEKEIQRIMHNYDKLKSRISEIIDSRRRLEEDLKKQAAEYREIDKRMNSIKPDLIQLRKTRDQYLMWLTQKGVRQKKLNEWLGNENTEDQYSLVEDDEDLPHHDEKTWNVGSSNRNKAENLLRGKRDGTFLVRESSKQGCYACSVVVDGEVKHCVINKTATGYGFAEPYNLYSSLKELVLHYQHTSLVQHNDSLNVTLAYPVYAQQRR
Sequence of mTOR (P42345 1360-2549): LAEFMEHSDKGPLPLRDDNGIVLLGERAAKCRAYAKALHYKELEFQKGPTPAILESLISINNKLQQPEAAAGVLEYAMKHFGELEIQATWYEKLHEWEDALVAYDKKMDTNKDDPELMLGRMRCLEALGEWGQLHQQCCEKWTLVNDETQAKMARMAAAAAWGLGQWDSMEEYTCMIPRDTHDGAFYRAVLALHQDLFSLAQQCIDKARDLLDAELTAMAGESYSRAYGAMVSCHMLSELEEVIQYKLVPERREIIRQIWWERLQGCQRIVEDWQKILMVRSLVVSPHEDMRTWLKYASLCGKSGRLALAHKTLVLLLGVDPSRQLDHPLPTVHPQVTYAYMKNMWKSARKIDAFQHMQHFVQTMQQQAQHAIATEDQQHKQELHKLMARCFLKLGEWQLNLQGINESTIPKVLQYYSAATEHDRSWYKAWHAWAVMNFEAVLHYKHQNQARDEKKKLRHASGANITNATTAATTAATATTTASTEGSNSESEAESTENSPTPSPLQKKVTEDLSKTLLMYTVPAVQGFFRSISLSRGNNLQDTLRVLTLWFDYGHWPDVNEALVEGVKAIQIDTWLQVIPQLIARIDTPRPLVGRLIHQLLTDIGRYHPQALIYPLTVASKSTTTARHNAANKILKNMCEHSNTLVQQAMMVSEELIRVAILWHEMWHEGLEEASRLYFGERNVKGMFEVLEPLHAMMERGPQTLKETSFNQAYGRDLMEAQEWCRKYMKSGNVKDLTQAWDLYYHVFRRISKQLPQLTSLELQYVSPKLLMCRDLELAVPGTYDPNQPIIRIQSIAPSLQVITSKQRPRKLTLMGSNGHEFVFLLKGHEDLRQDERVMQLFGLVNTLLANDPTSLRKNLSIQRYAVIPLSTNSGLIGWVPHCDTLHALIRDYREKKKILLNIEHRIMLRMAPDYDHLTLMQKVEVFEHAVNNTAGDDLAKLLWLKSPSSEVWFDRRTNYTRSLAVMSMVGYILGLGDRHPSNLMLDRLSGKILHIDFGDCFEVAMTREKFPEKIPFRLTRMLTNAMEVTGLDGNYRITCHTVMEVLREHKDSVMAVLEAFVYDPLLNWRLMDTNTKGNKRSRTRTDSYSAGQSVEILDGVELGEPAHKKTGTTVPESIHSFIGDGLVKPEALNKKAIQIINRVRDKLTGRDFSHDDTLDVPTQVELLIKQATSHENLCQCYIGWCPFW

Row | SMILES | IC50 [1, 3] | IC50 ([1]; IC50 value for mTOR, exact value in text) | IC50 [2, 4] | IC50 ([2]; exact value in text, read-out: IC50 value for PI3K)
1 | CC(=O)Nc1nc2ccc(-c3ccc(NS(C)(=O)=O)cc3)nc2s1 [Example 29, N-(5-(4-(Methylsulfonamido)phenyl)thiazolo[5,4-b]pyridin-2-yl)acetamide] | 100 to 1000 nM | 790 nM | 100 to 1000 nM | 310 nM
2 | CC(=O)Nc1nc2ccc(-c3ccc4[nH]cc(C#N)c4c3)cc2s1 [Example 16, N-(6-(3-Cyano-1H-indol-5-yl)benzo[d]thiazol-2-yl)acetamide] | 100 to 1000 nM |  | > 1000 nM | 
3 | CC(=O)Nc1nc2ccc(-c3ccc(C(C)(C)C#N)cc3)nc2s1 [Example 5, N-(5-(4-(2-Cyanopropan-2-yl)phenyl)thiazolo[5,4-b]pyridin-2-yl)acetamide] | > 1000 nM |  | > 1000 nM | 

Second part, the compound after the results:

Row | IC50 [1, 3] | IC50 ([1]; IC50 value for mTOR, exact value in text) | IC50 [2, 4] | IC50 ([2]; exact value in text, read-out: IC50 value for PI3K) | SMILES
4 | > 1000 nM |  | > 1000 nM |  | CC(=O)Nc1nc2ccc(-c3ccc4c(c3)NC(=O)CNC4=O)cc2s1 [Example 21, N-(6-(2,5-Dioxo-2,3,4,5-tetrahydro-1H-benzo[e][1,4]diazepin-8-yl)benzo[d]thiazol-2-yl)acetamide]
5 | > 1000 nM |  | > 1000 nM |  | CC(=O)Nc1nc2ccc(-c3ccc(S(C)(=O)=O)cc3)nc2s1 [Example 26, N-(5-(4-(Methylsulfonyl)phenyl)thiazolo[5,4-b]pyridine-2-yl)acetamide]
6 | > 1000 nM |  | > 1000 nM |  | CC(=O)Nc1nc2ccc(-c3cc(NS(C)(=O)=O)c4[nH]ccc4c3)cc2s1 [Example 32, N-(6-(7-(Methylsulfonamido)-1H-indol-5-yl)benzo[d]thiazol-2-yl)acetamide]
7 | > 1000 nM |  | > 1000 nM |  | CNS(=O)(=O)c1ccc(-c2ccc3nc(NC(C)=O)sc3n2)cc1 [Example 28, N-(5-(4-(N-Methylsulfamoyl)phenyl)thiazolo[5,4-b]pyridine-2-yl)acetamide]
